Read-outs that look alike come from different tables or passages of the source.
Test: Dehydrochoric acid level in serum after intravenous administration (loading test)
Format: in vivo, human (liver cirrhosis patient and healthy subject)
Conditions: human, 1000 mg, 1g intravenously; for AUC: read-out: area under concentration curve of the compound in blood (AUC) (converted); for k el: read-out: elimination constant (Kel) (converted)
Description: A liver cirrhosis patient and a healthy subject were each intravenously given 1g of dehydrochoric acid. The changes of the dehydrochoric acid level in serum after the administration were determined according to the same procedure as in Example 1 and using the reagent of Example 1. The results are shown in the appended FIG. 1. The elimination constant (keλ), the half-life period (T 1/2) and the area under concentration curve of the compound in blood (AUC) are given in Table 3.

SMILES: C[C@H](CCC(=O)O)[C@H]1CC[C@H]2[C@@H]3C(=O)C[C@@H]4CC(=O)CC[C@]4(C)[C@H]3CC(=O)[C@]12C [Dehydrochoric Acid, dehydrochoric acid]
- AUC (healthy subject): 45400 ng·h/mL
- k el (healthy subject): 0.00118 s⁻¹
- AUC (liver cirrhosis patient): 23300 ng·h/mL
- k el (liver cirrhosis patient): 0.00262 s⁻¹
